{
  "source": "patent US6767738B1",
  "about": "“Method of isolating adult mammalian CNS-derived progenitor stem cells using density gradient centrifugation” (The Salk Institute for Biological Studies, priority 1999, dated 2004)",
  "key": {"clonal stem cells (AP14)": {"tested_on": "clonal stem cells (AP14)", "test": "RT-PCR analysis of p21, NeuroD, trk and p75NGFR mRNA in stem cell cultures", "assay_type": "cell-based, rat", "experimental": "(§1) Cell Culture. For proliferating conditions, clonal stem cells (AP14) were cultured in Dulbecco's Modified Eagles Medium/Ham's F12 (DMEM/F12, 1:1) containing N2 supplement (Gibco BRL, Gaithersburg, Md.) and 20 ng/ml rhFGF-2 (provided by A. Baird, Prizm Pharmaceuticals Inc., La Jolla, Calif.). Culture dishes (Becton Dickinsin Labware, Lincoln Park, N.J.) were coated with polyomithine and mouse laminin as previously described by Ray, et al., Proliferation, differentiation and long-term culture of primary hippocampal neurons, Proc Natl Acad Sci USA 90:3602-3606 (1993). For differentiation experiments, cells were plated into polyornithine/laminin coated glass chamber slides (Nunc, Naperville, Ill.) at a density of 2.5—103 per cm2. The cells were incubated for 24 hrs in normal N2 medium containing 20 ng/ml FGF-2, and then the medium was replaced by N2 medium containing 0.5% […] (FBS) and 0.01% DMSO (control solvent) or […] all-trans retinoic acid (Sigma, St. Louis, Mo.). For further differentiation, the medium was replaced by N2 medium containing 0.5% FBS and one of the following: sterile water (control solvent), mouse 2.55 NGF (50 ng/ml, Boehringer Mannheim, Indianapolis, Ind.), rhBDNF (20 ng/ml, Alomone Labs, Jerusalem, Israel), rhNT-3 (40 ng/ml, Genentech, South San Francisco, Calif.). The medium was replaced every two days. For inhibition of the tyrosine kinase activity of the Trk receptors, K-252a (100 nM, Calbiochem, San Diego, Calif.) was added to the medium.\nReverse Transcription-PCR Analysis. Total RNA from stem cells was isolated using RNeasy Total RNA Kits (Qiagen, Chatsworth, Calif.) according to manufacturer's instructions. Fifty nanograms of total RNA was reverse transcribed using avian myeloblastosis virus reverse transcriptase (Promega, Madison, Wis.) with random hexamers ([…]) as primers in a […] reaction mixture. For PCR amplification, two sets of specific oligonucleotide pairs ([…]) were used: one directed to the transcript of interest, and one for a constitutively expressed transcript, either ribosomal protein L27 or L27a. Reactions were performed in a […] reaction mixture containing 10 mM Tris-Cl (pH 8.4), 50 mm KCl, 1.5 mM MgC12, […] each of the four dNTPs, 2 mCi of [a-32P]dCTP and 5 units of Taq polymerase (Promega) using a thermal cycler (Perkin-Elmer, Foster City, Calif.) with a regimen of 1 min at 94° C., 2 min at 60° C. (55° C. for trk receptors) and 2 min at 72° C. for 23 cycles Fifty microliters of each reaction was analyzed by electrophoresis on 8% polyacrylamide gels followed by autoradiography. […] Under these conditions, the L27 amplification product was directly proportional to the amount of input RNA, up to 50 ng total RNA. Oligonucleotide primers used are as follows: […]"}, "c-Fos": {"tested_on": "c-Fos", "test": "c-Fos immunofluorescence double labeling after neurotrophin stimulation", "assay_type": "cell-based, rat", "conditions": "RA for 6 days prior to stimulation by neurotrophins", "experimental": "as §1, with “For further differentiation, the medium was replaced by N2 medium containing 0.5% FBS and one of the following: sterile water (control solvent), mouse 2.55 NGF (50 ng/ml, Boehringer Mannheim, Indianapolis, Ind.), rhBDNF (20 ng/ml, Alomone Labs, Jerusalem, Israel), rhNT-3 (40 ng/ml, Genentech, South San Francisco, Calif.). The medium was replaced every two days. For inhibition of the tyrosine kinase activity of the Trk receptors, K-252a (100 nM, Calbiochem, San Diego, Calif.) was added to the medium.” left out\nImmunofluorescence. […] Both the average percentage and the absolute number +/− SEM of immunofluorescent cells were determined by counting 10 or 50 high power fields (20×) visualized under fluorescence. The total number of cells was counted using nuclear counterstaining with 4′,6diamidino-2-phenylindole (DAPI, Sigma). […]"}},
  "data": [
    {"smiles": "CC1=C(/C=C/C(C)=C/C=C/C(C)=C/C(=O)O)C(C)(C)CCC1", "note": "[RA, all-trans retinoic acid]", "values": [
      {"measurement": "p21 mRNA", "setting": "clonal stem cells (AP14); RA treatment, peaked after roughly 5 days", "value": "significant yet gradual increase"},
      {"measurement": "trkA mRNA", "setting": "clonal stem cells (AP14); following RA treatment", "value": "increased gradually and reached a plateau after 5 days"},
      {"measurement": "trkB mRNA", "setting": "clonal stem cells (AP14); following RA treatment", "value": "increased gradually and reached a plateau after 5 days"},
      {"measurement": "trkC mRNA", "setting": "clonal stem cells (AP14); following RA treatment", "value": "increased gradually and reached a plateau after 5 days"},
      {"measurement": "p75NGFR mRNA", "setting": "clonal stem cells (AP14); following RA treatment, 7-day time course", "value": "dramatically increased"},
      {"measurement": "expression of NeuroD mRNA", "setting": "clonal stem cells (AP14); within 24 hrs of FGF-2 withdrawal and RA treatment, 6 days", "value": "increased and remained elevated"},
      {"measurement": "number of c-Fos-positive cells", "setting": "c-Fos", "value": "significantly enhanced"}
    ]}
  ]
}
